In patent US11918000B2, “Methods for inducing resistance to virus in a plant, priming a plant to resist viruses, decreasing virus accumulation, or increasing PR1 expression in a plant” (Academia Sinica, priority 2019, dated 2024):

Assays:
[1] = tested on: Tobacco mosaic virus (TMV); assay: Infection rate of TMV on Nicotiana benthamiana, inoculum from lyophilized infected leaves, RT-PCR detection; type: in vivo; details: N. benthamiana
Procedure: (§1) Plants were grown in a growth chamber with 10,000 lux fluorescent light and a 16-h light/8-h dark cycle. N. glutinosa (6-7 weeks old, 8-10 leaf stage), N. benthamiana (3-4 weeks old, 5-6 leaf stage) and Brassica juncea (14 days old, 2-3 true-leaf stage) were used for treatment and/or inoculation. For virus inoculation, plants were dusted with 600-grit silicon carbide powder (Sigma-Aldrich, St. Louis, Mo., USA) and mechanically inoculated. Virus inoculum was prepared with 100 ml of 0.1 M potassium phosphate (KP) buffer (61.5% of 0.1 M K2HPO4 and 38.5% 0.1 M KH2PO4, pH 7.0) mixed with 0.1 g of lyophilized leaves of plants infected with Tobacco mosaic virus (TMV) (FIGS. 1, 4A-E, 8 and 9; FIG. 10, 11, 12, 14 and 15; Table 1), or TMV tagged with green fluorescence protein (TMV-GFP) (FIG. 5) (Rabindran, S., and Dawson, W.O. 2001. Assessment of recombinants that arise from the use of a TMV-based transient expression vector. Virology 284:182-189). Different concentrations of TMV purified particle inoculum was diluted with 0.1 M potassium phosphate (KP) buffer (61.5% of 0.1 M K2HPO4 and 38.5% 0.1 M KH2PO4, pH 7.0) (FIGS. 2, 3, and 4F; Table 2). Turnip mosaic virus (TuMV) inoculum was prepared with 0.1 g of fresh leaves from plants infected with TuMV ground with 10 ml of 0.1 M sodium phosphate buffer (0.1 M NaH2PO4, 0.1 M Na2HPO4 and 0.5% Na2SO3, pH 7.4). The severity of TMV or TuMV symptom of infected plants were scored based on external phenotype (FIG. 15). Transmission electron microscope (Philips Electronic Instruments, Mahwah, N.J.) was used to examine TMV particles of different inoculums.
(§2) Whole plants were sprayed with 0.4 ml H2O, VB, culture filtrate derived from microorganism or 5 mM salicylic acid (SA, Sigma-Aldrich) for total of three times with a 24-h interval between each spray. Twenty-four hours after the final treatment, plants were rubbed with the virus inoculum.
Besides using N. glutinosa for our initial screening, we also used N. benthamiana, a host that is highly susceptible to TMV, for resistance assay. N. benthamiana was pretreated with H2O, SA, VB, F2- or F8-culture filtrate as for pretreatment of N. glutinosa. All treated plants were inoculated with TMV inoculum made from lyophilized leaves of TMV infected N. benthamiana. […] With RT-PCR to detect TMV on all treated plants, the infection rate was much reduced with F8-culture filtrate than H2O, SA, VB or F2-culture filtrate pretreatment (Table 1). In our repeat experiments, the infection rate of TMV-inoculated plants with F8-culture filtrate pretreatment even decreased to 0% (Table 1). […] We prepared at least 7 different batches of F8-culture filtrate, and the ability to induce resistance against TMV was consistent between different batches (Table 1).

[2] = tested on: Tobacco mosaic virus (TMV) particle; assay: Infection rate of purified TMV particle on Nicotiana benthamiana; type: in vivo; details: Table 2, N. benthamiana, 7 dpi, RT-PCR, SA 5 mM
Procedure: as §1
Leaves of TMV-infected N. benthamiana were harvested approximately 5 days after inoculation. The initial purification of TMV virus particles followed the protocol as described by Gooding and Hebert (1967) with modifications. Briefly, polyethylene glycol with molecular weight 8000 (PEG 8000) (Sigma-Aldrich) was used instead of PEG 6000. In addition, the semi-purified preparation was submitted to linear density sucrose gradient (0-18%), and ultracentrifuged at 228,000×g for 1.5 h. The light scattering region was collected and diluted with 100 ml of suspension buffer (35 mM Na2HPO4, 15 mM NaH2PO4 and 0.05% 2-mercaptoethanol, pH7.2). NaCl (0.4 g) and PEG 8000 (4 g) were added and stirred for at least 1 h on ice, then centrifuged at 9000×g for 15 min at 4° C. The pellets were re-suspended in 1 ml of suspension buffer. The concentration of the purified TMV suspension was determined (A260 nm=[…] for 1 mg/mL of TMV) with a Nanodrop (ND-1000, Thermo Fisher Scientific, MA, USA).
as §2
In addition to using inoculum made from lyophilized leaves of TMV infected N. benthamiana, we also used different concentrations (1 μg/ml, 10 μg/ml and 50 μg/ml) of purified TMV particles as inoculum to inoculate N. glutinosa and N. benthamiana pretreated with H2O, SA, VB, or F8-culture filtrate (FIG. 2, FIG. 3). […] The infection rate of TMV on N. benthamiana was also detected by use of qRT-PCR (Table 2).

[3] = tested on: Tobacco mosaic virus (TMV); assay: Symptoms / disease index induced by TMV in Nicotiana benthamiana; type: in vivo; details: N. benthamiana; systemic protection test; 7 dpi
Procedure: FIG. 15A and FIG. 15B show disease index of N. benthamiana inoculated with TMV and Brassica juncea inoculated with TuMV. (FIG. 15A) N. benthamiana were inoculated with TMV. The disease index was classified into 4 levels according to the degree of yellowing, stunting and wilting at 7 dpi. (FIG. 15B) Brassica juncea were inoculated with TuMV. The disease index was classified into 3 levels according to the degree of leaf mosaic and stunting at 13 dpi.
Plants were grown in a growth chamber with 10,000 lux fluorescent light and a 16-h light/8-h dark cycle. N. glutinosa (6-7 weeks old, 8-10 leaf stage), N. benthamiana (3-4 weeks old, 5-6 leaf stage) and Brassica juncea (14 days old, 2-3 true-leaf stage) were used for treatment and/or inoculation. […] Virus inoculum was prepared with 100 ml of 0.1 M potassium phosphate (KP) buffer (61.5% of 0.1 M K2HPO4 and 38.5% 0.1 M KH2PO4, pH 7.0) mixed with 0.1 g of lyophilized leaves of plants infected with Tobacco mosaic virus (TMV) (FIGS. 1, 4A-E, 8 and 9; FIG. 10, 11, 12, 14 and 15; Table 1), or TMV tagged with green fluorescence protein (TMV-GFP) (FIG. 5) (Rabindran, S., and Dawson, W.O. 2001. Assessment of recombinants that arise from the use of a TMV-based transient expression vector. Virology 284:182-189). […] The severity of TMV or TuMV symptom of infected plants were scored based on external phenotype (FIG. 15). […]

[4] = tested on: TMV tagged with green fluorescence protein (TMV-GFP); assay: TMV-GFP infection of Nicotiana benthamiana (fluorescent infection foci); type: in vivo; details: N. benthamiana
Procedure: as §1, §2
Photographs of TMV-GFP fluorescent infection foci in N. benthamiana leaves were taken under UV light at 5 and 7 days post-inoculation (dpi), and the level of fluorescence as well as the areas of fluorescent infection sites in each leaf were measured by using ImageJ v1.47. All imaging was conducted under identical illumination and exposure conditions to allow for comparisons. Mean values of areas of all infection foci per treatment were calculated.
To analyze which virus infection steps are affected in F8-culture filtrate-treated plants, we used TMV tagged with green fluorescence protein (GFP) to inoculate N. benthamiana and monitor the infection of TMV. […] To compare TMV-GFP accumulation in each foci, we used a puncher to collect GFP foci under UV light and used qRT-PCR to quantify the TMV-GFP expression. […]

[5] = tested on: PR-1; assay: Relative expression of PR-1 by qRT-PCR; type: in vivo, Nicotiana benthamiana; details: N. benthamiana, no TMV, 24 hpt
From the text: Total RNA was isolated by use of Trizol (Invitrogen, Bethesda, Md.) according to the manufacturer's instruction. Residual DNA was removed by using the TURBO DNA-free kit (Ambion, Austin Tex., USA). cDNA was synthesized by using the PrimeScript RT-PCR Kit (Takara Bio, Shiga, Japan). Quantitative RT-PCR (qRT-PCR) involved the SYBR protocol (Life Technologies) and the ABI 7100 real-time PCR system (Applied Biosystems, Carlsbad, Calif.). For quantitative analysis, actin was used as an input control. Relative fold change in mRNA expression was determined by calculating 2^−ΔΔCt. The sequences of primers used are in Table S1.
We collected both the local and upper un-treated (systemic) leaves at 24 h post-treatment (hpt) to analyze the expression of the PR-1 gene (a SAR marker gene) (Zheng et al., 2015). PR-1 gene expression was detected in SA- and VB- but not F8-culture filtrate-treated local leaves (FIG. 4C). […] In addition, we collected leaves from plants with whole plants pretreated with H2O, SA, VB or F8-culture filtrate. Consistently, PR-1 gene induction was detected in leaves of whole plants pretreated with SA and VB but not whole plants pretreated with F8-culture filtrate at 24 hpt (FIG. 4E).
To analyze how F8-polysaccharide induces plant viral resistance, we measured the expression of SA-, JA- and ET-responsive immune marker genes in H2O- and F8-polysaccharide-treated plants (Cortes-Barco et al., 2010; Milling et al., 2011; Zhu et al., 2014). We first confirmed the induction of marker genes induced by SA (PR-1 and PR-2), JA (PDF-1.2 and PR-4), and ET (Osm and EREBP) in N. benthamiana (FIG. 14A). Plants were pretreated with H2O and F8-polysacccharide for total of three times with a 24-h interval between each spray as described previously, then leaves were collected from one set of individual plants at 0, 12, 24, 36, 48, 72, and 96 hpt. […] We detected the accumulation of TMV and the expression of SA-, JA- and ET-responsive immune marker genes (FIG. 9A-D, FIGS. S5C and D). […]

[6] = Table 1, lyophilized leaf inoculum, 7 dpi, RT-PCR, SA 5 mM
[7] = Table S3, fractions derived from F8-culture filtrate, 7 dpi, RT-PCR

O=C(O)c1ccccc1O [SA, salicylic acid]
infection rate of TMV-inoculated plants ([1]; pretreatment before TMV inoculation): 100% | infection rate of TMV: number of plants detected with TMV to total TMV inoculated plants, Exp. 2 [1, 6]: 5/5 | infection rate of TMV: number of plants detected with TMV to total TMV inoculated plants, Exp. 3 [1, 6]: 4/5 | infection rate of TMV: number of plants detected with TMV to total TMV inoculated plants, Exp. 4 [1, 6]: 5/5 | infection rate of TMV: number of plants detected with TMV to total TMV inoculated plants, Exp. 5 [1, 6]: 5/5 | infection rate of TMV: number of plants detected with TMV to total TMV inoculated plants, Exp. 6 [1, 6]: 5/5 | infection rate of TMV: number of plants detected with TMV to total TMV inoculated plants, Exp. 7 [1, 6]: 5/5 | infection rate of TMV: number of plants detected with TMV to total TMV inoculated plants, Exp. 8 [1, 6]: 5/5 | infection rate of TMV: number of plants detected with TMV to total TMV inoculated plants, Exp. 1 ([1]; Table 1, three sprays at 24-h intervals, inoculum from lyophilized TMV-inoculated leaves, 7 dpi, RT-PCR, SA 5 mM): 5/5 | infection rate of TMV: number of plants detected with TMV to total TMV inoculated plants, Total ([1]; Table 1, sum of Exp. 1-8, 7 dpi, RT-PCR): 39/40 | infection rate of TMV: number of plants detected with TMV to total TMV inoculated plants, Exp. 1 [1, 7]: 5/5 | infection rate of TMV: number of plants detected with TMV to total TMV inoculated plants, Exp. 2 [1, 7]: 5/5 | infection rate of TMV: number of plants detected with TMV to total TMV inoculated plants, Exp. 3 [1, 7]: 5/5 | infection rate of TMV: number of plants detected with TMV to total TMV inoculated plants, Total ([1]; Table S3, sum of Exp. 1-3, 7 dpi, RT-PCR): 15/15 | infection rate of TMV particle: number of plants detected with TMV to total inoculated plants, Exp. 1, 1 μg/ml ([2]; TMV particle 1 μg/ml): 6/6 | infection rate of TMV particle: number of plants detected with TMV to total inoculated plants, Exp. 2, 1 μg/ml ([2]; TMV particle 1 μg/ml): 6/6 | infection rate of TMV particle: number of plants detected with TMV to total inoculated plants, Exp. 3, 1 μg/ml ([2]; TMV particle 1 μg/ml): 15/15 | infection rate of TMV particle: number of plants detected with TMV to total inoculated plants, Exp. 1, 10 μg/ml ([2]; TMV particle 10 μg/ml): 6/6 | infection rate of TMV particle: number of plants detected with TMV to total inoculated plants, Exp. 1, 50 μg/ml ([2]; TMV particle 50 μg/ml): 6/6 | viral symptoms with pretreatment of only local (lower) leaves and TMV inoculation of upper untreated leaves [3]: severe viral symptoms | number of initial TMV-GFP infection foci ([4]; 5 dpi): reduced | mean TMV accumulation per foci ([4]; qRT-PCR of punched GFP foci): similar | infection rate of TMV-GFP: number of plants exhibiting green fluorescence under UV illumination to total TMV-GFP inoculated plants, Exp. 1 ([4]; Table S2, 7 dpi, SA 5 mM): 5/5 | infection rate of TMV-GFP: number of plants exhibiting green fluorescence under UV illumination to total TMV-GFP inoculated plants, Exp. 2 ([4]; Table S2, 7 dpi, SA 5 mM): 4/6 | PR-1 gene expression in treated local leaves ([5]; local leaves pretreated): detected | PR-1 gene expression on systemic (upper untreated) leaves ([5]; local leaves pretreated): increased PR-1 gene expression | PR-1 gene induction in leaves of whole plants pretreated ([5]; whole plant pretreated): detected
